Source: patent US10624917B2, “Compositions and methods useful for treating or preventing liver diseases or disorders, and promoting weight loss” (YALE UNIVERSITY, priority 2014, dated 2020)
“Also recorded” adds a separate entry of the source.

Tests used:
[1] = test system: C57BL/6 mice on high-fat diet; assay: High-fat diet (HFD) NASH model; assay type: in vivo, mouse
Protocol: FIGS. 21A-21C illustrate the finding that digoxin reduces liver damage, inflammation, glycolysis and total cholesterol. FIG. […] The liver tissues were performed by H & E staining, and the neutrophils were stained with CD11b/Ly6G double positive cells by FACS. Data are expressed as the mean±SD from 5 mice in each treatment group. *p<0.05 determined by Student's t-test. […] Data are expressed as the mean±SD from 5 mice in each treatment group. *p<0.05 determined by Student's t-test. FIG. 21C: The liver total RNA were isolated from as procedure from FIG. 21a, and subjected to illumina transcriptome analysis. Over 15 genes that most highly expressed were listed. Data are expressed as the mean±SD from 3 mice in each treatment group
FIGS. 22A-22D illustrate the finding that digoxin reduces high fat feeding induced obesity in mice. Wild type C57BL/6 mice were supplied with high-fat diet food (Research diets D12451 45% fat) for 12 weeks with or without the concurrent IP injection of Digoxin (twice a week, 1.0 mg/kg) or PBS control. The body weight was carefully monitored as the change of each 3 day's average. […] FIG. 22A illustrates examples of mice on high-fat diet with (DIG) and without (Ctrl) digoxin. […] The ratio of white adipose tissue and bodyweight after 12 weeks is shown (FIG. 22C). […] Data are expressed as the mean±SD from 5 mice in each treatment group. *p<0.05 determined by Student's t-test.
FIGS. 24A-24G illustrate the finding that digoxin limits hepatic steatosis and inflammation. […] The liver tissues were applied for H & E staining, and graphs show quantification of NAFLD histological activity score (FIGS. 24A-24B). The liver tissue inflammation was also determined by the neutrophil and monocyte infiltration, which measured by CD11b/Ly6G and CD11b/Ly6C double positive cells using FACS ([…]). Representative FACS flows from digoxin versus saline control are shown (FIGS. 24F-24G). The quantification of neutrophils and monocytes in digoxin versus saline control was performed. Serum ALT level in digoxin versus saline control was measured (FIGS. 24C-24D). The steatosis maker of triacylglcerol (TG) accumulation in the lever after digoxin treatment versus saline control was determined (FIG. 24E). All data throughout the figure are shown as the mean±SD from 5 mice in each group. Statistical significance was determined by one-way ANOVA. *p<0.05, **p<0.01 for each digoxin group versus saline control.
(§1) C57BL/6J male mice were placed on a 45% high-fat diet (HFD) for […] with and without digoxin (ip 1 mg/kg twice a week). Digoxin, 1 mg/kg ip daily, in mice results in the therapeutic serum levels achieved in humans (0.5-2 ng/ml). Plasma ALT, liver histology, neutrophil staining, leukocytes profiling, mitochondrial reactive oxygen species (ROS) generation, and gene transcriptome microarrays were analyzed. The ability of digoxin to inhibit inflammasome in mouse and human macrophages was tested. The chronic plus binge model of alcoholic hepatitis and LPS/D-GalN hepatitis models were also performed.

[2] = test system: C57BL/6 mice challenged with LPS/D-galactosamine; assay: LPS/D-GalN hepatitis (acute liver injury) model; assay type: in vivo, mouse
Protocol: FIGS. 23A-23D illustrate the finding that digoxin protects the severity of experimental acute liver failure. Digoxin was administrated intraperitoneally to C57BL/6 mice at dose level of 2, 1, 0.2, 0.05 mg/kg body weight and saline control for 1 hour, and then the mice were challenged with LPS (1 mg/kg body weight)/D-galactosamine (D-GalN) for 5 hours. The morphology of liver tissue was determined by H & E staining, and the inflammation was determined by the neutrophil infiltration of Gr-1 antibody staining Representative H & E stains (FIG. 23A, upper), and Gr-1 (FIG. 23A, lower) positive area of liver sections (original magnification ×100) from digoxin and saline control are illustrated. Graphs show quantification of injured (FIG. 23B) or Gr-1 (FIG. 23C) positive area by morphometry using Image J. *p<0.05 for each dosage of digoxin group versus saline control. The activity of the hepatic injury marker alanine transaminase (ALT) in serum level from digoxin versus saline control was measured (FIG. 23 D). All data throughout the figure are shown as the mean±SD. Statistical significance was determined by one-way ANOVA.
FIGS. 25A-25H illustrate the finding that digoxin alleviates hepatic oxidative stress and inflammasome activation. C57BL/6 mice were injected intraperitoneally with digoxin (1 mg/kg) and PBS control for 1 hour, and then challenged with LPS (1 mg/kg)/D-GlaN (500 mg/kg) for 5 h; C57BL/6 mice were on HFD with concurrent intraperitoneal injection of digoxin (1 mg/kg) for 12 weeks. The cellular oxidative stress and intracellular ROS production was monitored by intraperitoneal injection of DHE in last 30 min before the mice sacrificed. Representative DHE stains in LPS/D-GlaN (FIG. 25A) and HFD (FIG. 25B) from digoxin versus saline control are illustrated. The quantification of DHE positive area in digoxin versus saline control was performed (FIG. 25A, lower, and FIG. 25B, lower). The total RNA from liver tissue was isolated, and applied for gene expression of proIL-1β, TNFα, NLRP3 and HIF1a (FIGS. 25C-25F). The total liver protein was applied for protein expression of HIF1α, caspase-1, proIL-1β by western blot (FIG. 25H). The serum IL-1β was measured by ELISA (FIG. 25G). All data throughout the figure are shown as the mean±SD from 5 mice in each group. Statistical significance was determined by one-way ANOVA. *p<0.05, **p<0.01 for each digoxin group versus saline control.
as §1

[3] = in vivo; settings: mouse, 1 mg/kg
Protocol: FIG. 19 is a bar graph illustrating plasma digoxin levels in mice. Saline or digoxin were daily injected in mice at a dose of 1.0 mg/kg. Plasma digoxin levels measured 24 hours after the final injection were at or below the therapeutic range for humans (0.8-2 ng/mL).
as §1

[4] = test system: human macrophages; assay: Mitochondrial ROS production in human macrophages; assay type: cell-based; settings: TLR and hydrogen peroxide stimulation
[5] = test system: mouse macrophages; assay: Mitochondrial ROS production in mouse macrophages; assay type: cell-based; settings: TLR and hydrogen peroxide stimulation
[6] = test system: IL-1β secretion and caspase-1 activation in mouse macrophages; assay: Inflammasome inhibition in mouse macrophages; assay type: cell-based
Protocol: as §1

[7] = test system: mice, chronic plus binge model of alcoholic hepatitis; assay: Chronic plus binge model of alcoholic hepatitis; assay type: in vivo, mouse
Protocol: as §1

[8] = HFD 12 weeks, IP twice a week 1.0 mg/kg
[9] = HFD 12 weeks, ip 0.2 and 0.05 mg/kg twice a week, low dose-dependent manner
[10] = ip 1 mg/kg, LPS/D-GlaN (5 h) and HFD (12 weeks) mice
[11] = twice, a quarter and a twentieth of the human equivalent dose

C[C@H]1O[C@@H](O[C@@H]2[C@@H](O)C[C@H](O[C@@H]3[C@@H](O)C[C@@H](O[C@H]4CC[C@@]5(C)[C@H](CC[C@@H]6[C@@H]5C[C@@H](O)[C@]5(C)C(C7=CC(=O)OC7)CC[C@]65O)C4)O[C@@H]3C)O[C@@H]2C)C[C@H](O)[C@H]1O (stereo partly drawn) [digoxin, 4-[(3S,5R,8R,9S,10S,12R,13S,14S)-3-[(2S,4S,5R,6R)-5-[(2S,4S,5R,6R)-5-[(2S,4S,5R,6R)-4,5-dihydroxy-6-methyl-oxan-2-yl]oxy-4-hydroxy-6-methyl-oxan-2-yl]oxy-4-hydroxy-6-methyl-oxan-2-yl]oxy-12,14-dihydroxy-10,13-dimethyl-1,2,3,4,5,6,7,8,9,11,12,15,16,17-tetradecahydrocyclopenta[a]phenanthren-17-yl]-5H-furan-2-one]
fat deposition (liver oil red, TG content) ([1]; HFD 12 weeks, 1 mg/kg twice a week): reduces
glycolysis [1, 8]: reduces
high fat feeding induced obesity [1, 8]: reduces
liver damage [1, 8]: reduces
serum total cholesterol [1, 8]: reduces
hepatic steatosis [1, 9]: limits
liver inflammation [1, 9]: limits
signal genes of ROS metabolism, antioxidant pathway and glycolysis (microarray) ([1]; HFD liver): down-regulated
serum ALT ([1]; HFD+DIG, HFD alone 417±398 U/L, P<0.001): 91±73 U/L
liver inflammation ([1]; HFD, IP twice a week 1 mg/kg): reduces; also recorded: limits
hepatic steatosis ([1]; HFD, ip 1 mg/kg twice a week): limits
histological injury ([1]; HFD, ip 1 mg/kg twice a week): reduced
neutrophilic infiltrate ([1]; HFD, ip 1 mg/kg twice a week): reduced
liver inflammation ([1]; digoxin started after 4 weeks HFD): significant reduction
liver neutrophil ([1]; digoxin started after 4 weeks HFD, HFD alone 24.6%): 14.3%
liver monocytes ([1]; digoxin started after 4 weeks HFD, HFD alone 31.6%): 19.1%
body weight / weight gain ([1]; mice on HFD): less weight gain; also recorded: changes
histological injury ([2]; LPS/D-GalN hepatitis): reduced
neutrophilic infiltrate ([2]; LPS/D-GalN hepatitis): reduced
serum ALT ([2]; LPS/D-GalN hepatitis): lower
hepatic oxidative stress [2, 10]: alleviates
inflammasome activation [2, 10]: alleviates
severity of experimental acute liver failure ([2]; ip 2, 1, 0.2, 0.05 mg/kg 1 hour before LPS/D-GalN for 5 hours): protects
inflammation in an acute liver injury model ([2]; mouse, in vivo): inhibits
HIF-1α protein [2, 11]: reduction
IL-1β protein [2, 11]: reduction
cleaved (P10) caspase-1 protein [2, 11]: reduction
liver HIF-1α transcripts [2, 11]: reduction
liver Pro-IL-1β transcripts [2, 11]: reduction
liver hemorrhage and necrosis [2, 11]: improvement
pro-IL-1β protein [2, 11]: reduction
concentration at 24 h [3]: 0.8 to 2 ng/mL
concentration at 24 h ([3]; ip): 0.5 to 2 ng/mL
mitochondrial ROS production [4]: dose-dependently inhibited
mitochondrial ROS production [5]: dose-dependently inhibited
IL-1 β secretion [6]: inhibited
caspase-1 activation [6]: inhibited
histological injury [7]: reduced
neutrophilic infiltrate [7]: reduced
serum ALT [7]: lower
